From patent US11547715B2, “Use of chlorogenic acid in preparation of drug for treating chordoma” (SICHUAN JIUZHANG BIOLOGICAL SCIENCE AND TECHNOLOGY CO., LTD, priority 2017, dated 2023)

Legend:
[1] = test system: human chordoma CM-319 cells; experiment: CCK-8 proliferation inhibition of human chordoma CM-319 cells; assay type: cell-based
Procedure: Drug: chlorogenic acid raw material (99.6% purity, Sichuan Jiuzhang Biotechnology Co., Ltd.) Cell line: human chordoma cell line CM-319 cells (West China Hospital, Sichuan University)
Human chordoma CM-319 cells growing in logarithmic phase was collected, and the cell concentration was adjusted to 6×10^5 cells/ml with 1640 medium. 100 μL suspension of above cells was taken out and inoculated into 96 well plate, and each experimental group has three replicate wells. To each well, was added 100 μL corresponding drugs, so that the final concentration of chlorogenic acid in the experimental group is 10 μmol/L, 20 μmol/L, and 40 μmol/L, respectively, and then the plate was further cultured for 24 hours. In the negative control group, no drug was added, and only the same volume of 100 μL culture medium was added. After 24 hours, 10 μL CCK-8 solution was added to each well, and the culture plate was incubated in the incubator for another one hour. The absorbance of each well was measured at 450 nm by ELISA. The inhibition of chlorogenic acid on human chordoma CM-319 cells was calculated at various concentrations by using the growth inhibition rate=(absorbance of the negative control group at 450 nm—absorbance of the experimental group at 450 nm)/absorbance of the negative control group at 450 nm×100%.

[2] = test system: MDR1 expression in human chordoma CM-319 cells; details: RT-PCR, FIG. 1
Excerpt: MDR1 primer (Shanghai Bioengineering Co., Ltd.); RNA extraction kit (Jiangsu biyuntian); reverse transcription synthesis kit (Jiangsu biyuntian); chlorogenic acid API (purity 99.6%, Sichuan Jiuzhang Biotechnology Co., Ltd.).
In this example, RT-PCR was used to detect the effect of different experimental groups on the expression of MDR1 in human chordoma CM-319 cells. CM-319 cells cultured in 6-well plate was collected, and RNA extraction kit was used to extract total RNA in cells, then reverse transcription synthesis kit was used to transcribe the first strand of cDNA. After that, PCR amplification reaction was used to detect the expression level of target genes in different experimental groups.

[3] = different concentrations (10, 20, 40 μmol/L)

O=C(/C=C/c1ccc(O)c(O)c1)O[C@@H]1C[C@](O)(C(=O)O)C[C@@H](O)[C@H]1O [chlorogenic acid]
inhibition at 10 µM ([1]; Homo sapiens, Group 1: chlorogenic acid 10 μmol/L, 24 hours, CCK-8, read-out: Inhibitory rate of cells (%)): 36.8 ± 5.12% | inhibition at 20 µM ([1]; Homo sapiens, Group 2: chlorogenic acid 20 μmol/L, 24 hours, CCK-8, read-out: Inhibitory rate of cells (%)): 48.4 ± 6.11% | inhibition at 40 µM ([1]; Homo sapiens, Group 3: chlorogenic acid 40 μmol/L, 24 hours, CCK-8, read-out: Inhibitory rate of cells (%)): 55.5 ± 3.78% | inhibition of proliferation of human chordoma cells (in words) [1, 3]: strongly inhibit human chordoma cells | expression level of MDR1 in CM-319 cells (in words) [2, 3]: reduce the expression level of MDR1 in CM-319 cells to various degrees | expression level of drug-resistant genes (MDR1) in cells (in words) ([2]; high concentration 40 μmol/L, compared with other groups): significantly reduce the expression level of drug-resistant genes
